Source: patent US8471005B2 (Cephalon, Inc., priority 2008, dated 2013)
Like-named read-outs stand apart in the source and are kept apart here.

How the values were obtained:
[1] = biological target: T1, ALK (Homo sapiens, UniProt Q9UM73); assay: ALK Kinase Assay (ELISA/TRF, PLC-γ substrate); assay type: biochemical; conditions: read-out: ALK Potency
T1 construct: host or cells: baculovirus expression system
Method in brief: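 Time-resolved fluorescence ELISA using Eu-N1 PT66 antibody to detect phosphorylated PLC-γ (coated at 10 μg/mL). Enzyme at 30 ng/ml ALK; 15 min incubation, 37° C.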

[2] = biological target: T2, JAK2 (Homo sapiens, UniProt O60674); assay: Recombinant Human JAK2 Kinase Assay (TRF); assay type: biochemical; conditions: read-out: JAK2 Potency
T2 construct: host or cells: baculovirus expression system
T2 sequence (O60674 whole entry): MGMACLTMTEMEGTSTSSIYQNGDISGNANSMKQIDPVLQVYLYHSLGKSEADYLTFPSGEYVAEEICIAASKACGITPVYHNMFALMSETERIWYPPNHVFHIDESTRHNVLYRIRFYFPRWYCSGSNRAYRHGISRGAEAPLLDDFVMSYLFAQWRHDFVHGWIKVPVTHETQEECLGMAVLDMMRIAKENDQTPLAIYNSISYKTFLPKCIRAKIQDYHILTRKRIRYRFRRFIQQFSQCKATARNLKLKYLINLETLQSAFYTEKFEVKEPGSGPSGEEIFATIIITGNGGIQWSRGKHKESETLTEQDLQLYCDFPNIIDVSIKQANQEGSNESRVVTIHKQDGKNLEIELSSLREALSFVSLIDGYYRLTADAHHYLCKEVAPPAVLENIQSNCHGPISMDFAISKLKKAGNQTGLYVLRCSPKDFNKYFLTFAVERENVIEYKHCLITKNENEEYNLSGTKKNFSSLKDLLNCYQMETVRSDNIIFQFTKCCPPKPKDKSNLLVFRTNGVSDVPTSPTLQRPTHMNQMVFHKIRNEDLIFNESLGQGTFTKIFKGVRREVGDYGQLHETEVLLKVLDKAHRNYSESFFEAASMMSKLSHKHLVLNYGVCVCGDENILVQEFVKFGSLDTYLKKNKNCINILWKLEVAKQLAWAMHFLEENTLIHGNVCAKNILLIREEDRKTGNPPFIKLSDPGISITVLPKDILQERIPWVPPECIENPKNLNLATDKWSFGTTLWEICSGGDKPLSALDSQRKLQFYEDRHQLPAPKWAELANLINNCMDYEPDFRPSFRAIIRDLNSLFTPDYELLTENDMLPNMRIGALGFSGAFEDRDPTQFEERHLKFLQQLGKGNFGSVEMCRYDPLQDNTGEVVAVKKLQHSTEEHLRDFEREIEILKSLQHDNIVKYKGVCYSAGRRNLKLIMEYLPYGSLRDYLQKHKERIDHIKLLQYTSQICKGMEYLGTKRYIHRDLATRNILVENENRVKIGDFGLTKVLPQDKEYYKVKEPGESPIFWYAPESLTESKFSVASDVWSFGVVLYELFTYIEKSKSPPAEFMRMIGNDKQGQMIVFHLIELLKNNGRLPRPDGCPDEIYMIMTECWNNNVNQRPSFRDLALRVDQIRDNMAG
Method in brief: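 Baculovirus-expressed JAK2 (15 ng/ml) phosphorylated a biotinylated 15-mer peptide captured on Neutravidin-coated plates, in 20 mM HEPES pH 7.2 with 0.2 μM ATP, 1 mM MnCl2, 0.1% BSA and 2.5% DMSO. Reaction ran 20 min at room temperature; phosphopeptide was detected by time-resolved fluorescence with Eu-N1-labelled PY100 antibody.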

[3] = ALK kinase inhibition, 1 μM ATP
[4] = JAK2 kinase inhibition, 0.2 μM ATP

T1 sequence (Q9UM73 19-1620): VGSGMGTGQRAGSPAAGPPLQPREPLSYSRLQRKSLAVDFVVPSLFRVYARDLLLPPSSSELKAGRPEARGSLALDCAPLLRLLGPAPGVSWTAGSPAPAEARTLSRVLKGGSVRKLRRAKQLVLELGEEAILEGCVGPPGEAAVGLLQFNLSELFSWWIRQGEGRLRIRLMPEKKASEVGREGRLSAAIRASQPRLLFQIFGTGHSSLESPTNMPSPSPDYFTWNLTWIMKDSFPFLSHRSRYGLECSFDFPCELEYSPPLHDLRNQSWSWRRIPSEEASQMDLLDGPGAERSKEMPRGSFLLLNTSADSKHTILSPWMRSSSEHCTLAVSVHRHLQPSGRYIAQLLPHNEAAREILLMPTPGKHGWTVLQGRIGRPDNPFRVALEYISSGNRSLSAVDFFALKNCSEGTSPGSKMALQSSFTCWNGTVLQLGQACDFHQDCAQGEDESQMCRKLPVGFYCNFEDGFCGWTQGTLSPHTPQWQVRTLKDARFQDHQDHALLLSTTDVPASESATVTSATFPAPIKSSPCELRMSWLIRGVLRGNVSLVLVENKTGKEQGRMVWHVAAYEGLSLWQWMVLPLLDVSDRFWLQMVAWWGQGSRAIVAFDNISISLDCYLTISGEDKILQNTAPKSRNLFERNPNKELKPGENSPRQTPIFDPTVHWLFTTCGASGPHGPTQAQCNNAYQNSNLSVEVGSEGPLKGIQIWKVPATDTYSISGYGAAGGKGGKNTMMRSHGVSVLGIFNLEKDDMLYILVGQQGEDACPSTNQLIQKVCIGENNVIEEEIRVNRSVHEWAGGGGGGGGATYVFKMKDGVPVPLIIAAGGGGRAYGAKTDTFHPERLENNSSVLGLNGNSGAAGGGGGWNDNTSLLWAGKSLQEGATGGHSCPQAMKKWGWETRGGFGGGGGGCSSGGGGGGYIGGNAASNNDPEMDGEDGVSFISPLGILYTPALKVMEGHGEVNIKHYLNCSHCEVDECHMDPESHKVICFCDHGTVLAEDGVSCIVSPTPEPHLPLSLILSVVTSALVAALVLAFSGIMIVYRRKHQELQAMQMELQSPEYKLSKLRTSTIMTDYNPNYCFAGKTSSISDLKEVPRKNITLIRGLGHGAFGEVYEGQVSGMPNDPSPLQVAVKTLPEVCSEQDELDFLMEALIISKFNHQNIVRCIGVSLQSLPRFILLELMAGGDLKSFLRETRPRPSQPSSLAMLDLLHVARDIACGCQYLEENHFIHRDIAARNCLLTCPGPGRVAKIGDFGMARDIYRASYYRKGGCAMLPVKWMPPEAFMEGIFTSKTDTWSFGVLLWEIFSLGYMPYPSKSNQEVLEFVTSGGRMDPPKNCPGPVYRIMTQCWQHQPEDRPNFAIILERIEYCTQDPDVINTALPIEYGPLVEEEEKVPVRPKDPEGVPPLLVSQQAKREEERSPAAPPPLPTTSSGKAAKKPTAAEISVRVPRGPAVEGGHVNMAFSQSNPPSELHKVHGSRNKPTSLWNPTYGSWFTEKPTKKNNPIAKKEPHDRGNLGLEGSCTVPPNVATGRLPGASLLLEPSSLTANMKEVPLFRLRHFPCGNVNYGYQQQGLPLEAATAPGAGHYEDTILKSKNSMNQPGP

`C#CCNC(=O)c1cccc(-c2ccc3cnc(Nc4ccc(N5CCN(C)CC5)cc4)nn23)c1` [Example 1147, 3-{2-[4-(4-Methyl-piperazin-1-yl)-phenylamino]-pyrrolo[2,1-f][1,2,4]triazin-7-yl}-N-prop-2-ynyl-benzamide] gave an IC50 [1, 3] of 100 to 1000 nM and an IC50 [2, 4] of under 100 nM.

In the case of `CN1CCCC1COc1cc(Nc2ncc3ccc(-c4ccccc4N(C)S(C)(=O)=O)n3n2)ccc1Cl` (centres unmarked) [Example 1010, N-(2-{2-[4-Chloro-3-(1-methyl-pyrrolidin-2-ylmethoxy)-phenylamino]-pyrrolo[2,1-f][1,2,4]triazin-7-yl}-phenyl)-N-methyl-methanesulfonamide], the IC50 [1, 3] is reported as 100 to 1000 nM and the IC50 [2, 4] is reported as under 100 nM.

`COc1ccc(-c2ccc3cnc(Nc4ccc(C5=CCN(CC(N)=O)CC5)c(C(F)(F)F)c4)nn23)cn1` [Example 953, 2-(4-{4-[7-(6-Methoxy-pyridin-3-yl)-pyrrolo[2,1-f][1,2,4]triazin-2-ylamino]-2-trifluoromethyl-phenyl}-3,6-dihydro-2H-pyridin-1-yl)-acetamide] showed an IC50 [1, 3] of 1000 to 10000 nM and an IC50 [2, 4] of under 100 nM.

Compound `COc1ccc(-c2ccc3cnc(Nc4cccc(C#N)c4)nn23)cn1` [Example 974, 3-[7-(6-Methoxy-pyridin-3-yl)pyrrolo[2,1f][1,2,4]triazin-2-ylamino]-benzonitrile] has an IC50 [1, 3] of 1000 to 10000 nM and an IC50 [2, 4] of under 100 nM.

With `COc1ccc(Cl)cc1-c1ccc2cnc(Nc3ccc(N4CCN(C[C@@H](C)O)CC4)cc3)nn12` [Example 207, (R)-1-(4-{4-[7-(5-Chloro-2-methoxy-phenyl)-pyrrolo[2,1-f][1,2,4]triazin-2-ylamino]-phenyl}-piperazin-1-yl)-propan-2-ol] the IC50 ([1]; ALK Kinase Inhibition) was under 100 nM and the IC50 ([2]; JAK2 Kinase Inhibition) was under 100 nM.

Compound `COc1cc(N2CCN(C[C@H](C)O)CC2)ccc1Nc1ncc2ccc(-c3ccccc3S(C)(=O)=O)n2n1` [Example 541, (S)-1-(4-{4-[7-(2-Methanesulfonyl-phenyl)-pyrrolo[2,1-f][1,2,4]triazin-2-ylamino]-3-methoxy-phenyl}-piperazin-1-yl)-propan-2-ol] has an IC50 [1, 3] of 100 to 1000 nM and an IC50 [2, 4] of 1000 to 10000 nM.

For `CS(=O)(=O)c1cccc(-c2ccc3cnc(Nc4ccc(Cl)c(OC[C@@H]5CCCN5)c4)nn23)c1` [Example 1020, [4-Chloro-3-((S)-1-pyrrolidin-2-ylmethoxy)-phenyl]-[7-(3-methanesulfonyl-phenyl)-pyrrolo[2,1-f][1,2,4]triazin-2-yl]-amine], the IC50 [1, 3] was 1000 to 10000 nM and the IC50 [2, 4] was under 100 nM.

Compound `Cn1ncc2ccc(Nc3ncc4ccc(-c5cccc(S(=O)(=O)CC6CC6)c5)n4n3)cc21` [Example 1321, [7-(3-Cyclopropylmethanesulfonyl-phenyl)-pyrrolo[2,1-f][1,2,4]triazin-2-yl]-(1-methyl-1H-indazol-6-yl)-amine] has an IC50 [1, 3] of 1000 to 10000 nM and an IC50 [2, 4] of under 100 nM.

With `CS(=O)(=O)c1ccc(-c2ccc3cnc(Nc4ccc(C5CCN(CC(N)=O)CC5)cc4)nn23)cc1` [Example 1435, 2-(4-{4-[7-(4-Methanesulfonyl-phenyl)-pyrrolo[2,1-f][1,2,4]triazin-2-ylamino]-phenyl}-piperidin-1-yl)-acetamide] the IC50 ([1]; ALK Kinase Inhibition) was 100 to 1000 nM and the IC50 ([2]; JAK2 Kinase Inhibition) was under 100 nM.

`COc1cc(C2CCN(CC(N)=O)CC2)ccc1Nc1ncc2ccc(-c3ccccc3-n3cccn3)n2n1` [Example 854, 2-(4-{3-Methoxy-4-[7-(2-pyrazol-1-yl-phenyl)-pyrrolo[2,1-f][1,2,4]triazin-2-ylamino]-phenyl}-piperidin-1-yl)-acetamide] was tested, and the IC50 [1, 3] was under 100 nM and the IC50 [2, 4] was over 10000 nM.

`COc1ccc2c(c1)cc1cnc(Nc3ccc(N4CCOCC4)cc3)nn12` [Example 268, (7-Methoxy-[1,2,4]triazino[1,6-a]indol-2-yl)-(4-morpholin-4-yl-phenyl)-amine] gave an IC50 ([1]; ALK Kinase Inhibition) of over 10000 nM and an IC50 ([2]; JAK2 Kinase Inhibition) of under 100 nM.

`CC(C)(C)NS(=O)(=O)c1cccc(-c2ccc3cnc(Nc4ccc(C5CCC(O)CC5)cc4)nn23)c1` (centres unmarked) [Example 568, N-tert-Butyl-3-{2-[4-(4-hydroxy-cyclohexyl)-phenylamino]-pyrrolo[2,1-f][1,2,4]triazin-7-yl}-benzenesulfonamide] showed an IC50 [1, 3] of 100 to 1000 nM and an IC50 [2, 4] of under 100 nM.

For `CN(c1cccc(-c2ccc3cnc(Nc4ccc(C5CCN(CCO)CC5)cc4)nn23)c1)S(C)(=O)=O` [Example 961, N-[3-(2-{4-[1-(2-Hydroxy-ethyl)-piperidin-4-yl]-phenylamino}-pyrrolo[2,1-f][1,2,4]triazin-7-yl)-phenyl]-N-methyl-methanesulfonamide], the IC50 [1, 3] was 100 to 1000 nM and the IC50 [2, 4] was under 100 nM.

`CN1CCN(c2ccc(Nc3ncc4ccc(-c5ccc(CNCCS(C)(=O)=O)o5)n4n3)cc2)CC1` [Example 1200, (7-{5-[(2-Methanesulfonyl-ethylamino)-methyl]-furan-2-yl}-pyrrolo[2,1-f][1,2,4]triazin-2-yl)-[4-(4-methyl-piperazin-1-yl)-phenyl]-amine] gave an IC50 [1, 3] of 100 to 1000 nM and an IC50 [2, 4] of under 100 nM.

`Cc1ccncc1-c1ccc2cnc(Nc3ccc(N4CCN(C)CC4)cc3)nn12` [Example 1039, [4-(4-Methyl-piperazin-1-yl)-phenyl]-[7-(4-methyl-pyridin-3-yl)-pyrrolo[2,1-f][1,2,4]triazin-2-yl]-amine] gave an IC50 [1, 3] of 100 to 1000 nM and an IC50 [2, 4] of under 100 nM.

With `N#CCCc1cccc(-c2ccc3cnc(Nc4ccc(N5CCC(N6CCOCC6)CC5)cc4)nn23)c1` [Example 1150, 3-(3-{2-[4-(4-Morpholin-4-yl-piperidin-1-yl)-phenylamino]-pyrrolo[2,1-f][1,2,4]triazin-7-yl}-phenyl)-propionitrile] the IC50 [1, 3] was under 100 nM and the IC50 [2, 4] was under 100 nM.

For `COCC(C)Oc1ncc2ccc(-c3ccc(S(C)(=O)=O)cc3)n2n1` (centres unmarked) [Example 113, 7-(4-Methanesulfonyl-phenyl)-2-(2-methoxy-1-methyl-ethoxy)-pyrrolo[2,1-f][1,2,4]triazine], the IC50 ([1]; ALK Kinase Inhibition) was over 10000 nM and the IC50 ([2]; JAK2 Kinase Inhibition) was 1000 to 10000 nM.

For “N-{2-[2-(4-{4-[(2-Hydroxy-ethyl)-methyl-amino]-piperidin-1-yl}-2-ethoxy-phenylamino)-pyrrolo[2,1-f][1,2,4]triazin-7-yl]-phenyl}-N-methyl-methanesulfonamide [Example 795]”, the IC50 [1, 3] was under 100 nM and the IC50 [2, 4] was 100 to 1000 nM.

`CS(=O)(=O)c1cccc(-c2ccc3cnc(Nc4ccc(N5CCOCC5)cc4)nn23)c1` [Example 43, [7-(3-Methanesulfonyl-phenyl)-pyrrolo[2,1-f][1,2,4]triazin-2-yl]-(4-morpholin-4-yl-phenyl)-amine] showed an IC50 ([1]; ALK Kinase Inhibition) of 100 to 1000 nM and an IC50 ([2]; JAK2 Kinase Inhibition) of under 100 nM.

For `CC(C)(C)NS(=O)(=O)c1cccc(-c2ccc3cnc(Nc4ccc5scnc5c4)nn23)c1` [Example 575, 3-[2-(Benzothiazol-5-ylamino)-pyrrolo[2,1-f][1,2,4]triazin-7-yl]-N-tert-butyl-benzenesulfonamide], the IC50 [1, 3] was 1000 to 10000 nM and the IC50 [2, 4] was under 100 nM.

With `COc1cccc(Nc2ncc3ccc(-c4cc(Cl)ccc4OC)n3n2)c1` [Example 144, [7-(5-Chloro-2-methoxy-phenyl)-pyrrolo[2,1-f][1,2,4]triazin-2-yl]-(3-methoxy-phenyl)-amine] the IC50 ([1]; ALK Kinase Inhibition) was 1000 to 10000 nM and the IC50 ([2]; JAK2 Kinase Inhibition) was under 100 nM.

Work on `COc1cc2c(cc1Nc1ncc3ccc(-c4ccccc4N(C)S(C)(=O)=O)n3n1)CN(C(=O)CN)C2` [Example 879, N-(2-{2-[2-(2-Amino-acetyl)-6-methoxy-2,3-dihydro-1H-isoindol-5-ylamino]-pyrrolo[2,1-f][1,2,4]triazin-7-yl}-phenyl)-N-methyl-methanesulfonamide] yielded an IC50 [1, 3] of under 100 nM and an IC50 [2, 4] of 100 to 1000 nM.
